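Protocol summary: plate cells (96-well), add compound at 5 concentrations, incubate 48 h, interpolate endpoints linearly. GI50: concentration for 50% inhibition of growth. TGI is the concentration that stops growth completely.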
Assays:
Assay in all cases: NCI anticancer screen, dose series, 48 h
RXF 393 renal = tested on: RXF 393 renal
EKVX NSCLC = tested on: EKVX NSCLC
TK-10 renal = tested on: TK-10 renal
COLO 205 colon = tested on: COLO 205 colon
LOX IMVI melanoma = tested on: LOX IMVI melanoma
SK-MEL-5 melanoma = tested on: SK-MEL-5 melanoma
HCT-116 colon = tested on: HCT-116 colon
SNB-19 CNS = tested on: SNB-19 CNS
OVCAR-5 ovarian = tested on: OVCAR-5 ovarian

Row | Compound | TGI (RXF 393 renal) [µM] | TGI (EKVX NSCLC) [µM] | TGI (TK-10 renal) [µM] | TGI (COLO 205 colon) [µM] | TGI (LOX IMVI melanoma) [µM] | TGI (SK-MEL-5 melanoma) [µM] | TGI (HCT-116 colon) [µM] | TGI (SNB-19 CNS) [µM] | TGI (OVCAR-5 ovarian) [µM] | GI50 (RXF 393 renal) [mM] | GI50 (EKVX NSCLC) [mM] | GI50 (TK-10 renal) [mM] | GI50 (SNB-19 CNS) [nM]
1 | Cn1c(CO)ccc1-c1ccc(-c2ccc(CO)[se]2)[se]1 | > 100 | > 100 | > 78.1 | 9.23 | 41.2 | 6.74 | 60 | > 100 | – | – | – | – | –
2 | O=c1[nH]nc(Nc2ccc(Cl)cc2)c2nnn(C3CCCCC3)c12 | 92.8 | > 100 | > 100 | > 100 | 43.3 | > 100 | > 100 | > 100 | > 100 | – | – | – | –
3 | O=C(/C=C/c1ccccc1)c1cc(CN2CCOCC2)c(O)c(CN2CCOCC2)c1 | 35.8 | 98.5 | 55.6 | 23.6 | 19.5 | 26 | 31.3 | > 100 | 36.2 | – | – | – | –
4 | Cc1ccc(C(=O)Nc2ccc(CP(=O)(O)O)cc2CP(=O)(O)O)cc1N | > 100 | > 100 | > 100 | > 100 | > 100 | > 100 | > 100 | > 100 | > 100 | – | – | – | –
5 | CN(Cc1cnc2nc(N)nc(N)c2n1)c1ccc(C(=O)NC(CCC(=O)O)C(=O)O)c2ccccc12 (centres undefined) | > 1000 | > 1000 | > 1000 | – | > 1000 | > 1000 | > 1000 | > 1000 | > 1000 | > 1 | > 1 | > 1 | < 17.4
6 | O=C1Nc2noc(=O)nc2NO1 | > 200 | > 200 | > 200 | > 200 | > 200 | > 200 | > 200 | > 200 | > 200 | – | – | – | –
7 | O=S(Nc1ccccc1)c1ccc(Cl)cc1 (centres undefined) | – | > 100 | > 100 | > 100 | > 100 | > 100 | > 100 | > 100 | > 100 | – | – | – | –
8 | Cc1ccc(S(=O)(=O)N/N=c2/sc3ccccc3n2C)cc1 | > 100 | > 100 | > 100 | > 100 | > 100 | > 100 | > 100 | > 100 | > 100 | – | – | – | –
9 | CC(=O)OC12c3ccccc3C(c3ccccc31)C1C(=O)N(N=C(C)C)C(=O)C12 (centres undefined) | > 100 | > 100 | > 100 | > 100 | > 100 | > 100 | > 100 | > 100 | > 100 | – | – | – | –
10 | C[n+]1c2ccccc2n2c3ccccc3c(NCCCn3ccnc3)c(C#N)c21 | 3.48 | 24.1 | 59.5 | 4.4 | 2.51 | 13.1 | 10.1 | > 31.2 | 18.7 | – | – | – | –
11 | O=C(N/N=C/c1ccccc1)c1c(F)c(F)c(F)c(F)c1F | > 100 | > 100 | > 100 | > 100 | > 100 | > 100 | > 100 | > 100 | > 100 | – | – | – | –
12 | Cc1cc2nc(N3C(=O)/C(=C/Cc4ccco4)N=C3c3ccccc3)sc2cc1C | 59.1 | > 100 | > 100 | > 100 | > 100 | > 100 | 54 | > 100 | > 100 | – | – | – | –
13 | CC1(C)C(=O)/C(=C/c2ccccc2)C(C)(C)C1(C)C | > 100 | > 100 | > 100 | > 100 | > 100 | > 100 | > 100 | > 100 | > 100 | – | – | – | –
14 | COc1cc2c(cc1OC)C1=C(C=O)c3ccc(OC)c(OC)c3C(O)N1CC2 (centres undefined) | – | > 100 | 72.8 | 64.1 | – | 29.7 | > 100 | > 100 | > 100 | – | – | – | –
15 | COc1cc(C=O)cc(C=Nc2ccc(Br)cc2)c1O | 15 | > 100 | > 100 | 36.3 | 29.8 | 21.1 | > 100 | > 100 | > 100 | – | – | – | –
16 | CC(C)=CC1C(C(=O)OCc2cc3c(cc2Cl)OCO3)C1(C)C (centres undefined) | > 100 | 80 | > 100 | – | 33.5 | 34.2 | > 100 | > 100 | > 100 | – | – | – | –
17 | Cc1cccc2c1nc1n2C(=O)c2ccccc2-1 | > 100 | > 100 | > 100 | > 100 | – | > 100 | > 100 | > 100 | > 100 | – | – | – | –
18 | COC(=O)CCC(C)[C@H]1CCC2C3CC[C@@H]4CC5(CC[C@]4(C)C3C[C@H](OC(C)=O)[C@@]21C)OOC1(CCCCC1)OO5 (some centres undefined) | > 100 | 7.37 | > 100 | > 100 | – | 80.9 | > 100 | > 100 | > 100 | – | – | – | –
19 | CC(C)(C)C(=O)c1c(O)c2ccccc2c2ccccc2c1=O | – | > 100 | > 100 | > 100 | > 100 | > 100 | > 100 | > 100 | > 100 | – | – | – | –
20 | O=C(/C=C\c1ccccc1)Oc1ccc(/C=C2\CCC/C(=C\c3ccc(OC(=O)/C=C\c4ccccc4)cc3)C2=O)cc1 | – | > 100 | > 100 | > 100 | > 100 | > 100 | > 100 | > 100 | > 100 | – | – | – | –
21 | Cc1ccc(S(=O)(=O)NC(=O)Nc2ccc(C(=O)O)cc2)cc1 | > 100 | – | > 100 | > 100 | > 100 | > 100 | > 100 | > 100 | > 100 | – | – | – | –
22 | CCCCCCCCCCCCCCCCNc1nc(=O)n(C2OC(C)C(O)C2O)cc1F (centres undefined) | 44.8 | 35.3 | 30.6 | 58.7 | 55.5 | 43.4 | 36.7 | 39.7 | 36.7 | – | – | – | –
23 | CN(C)c1cccc2c(S(=O)(=O)NCCN)cccc12 | > 100 | > 100 | – | > 100 | > 100 | > 100 | > 100 | > 100 | > 100 | – | – | – | –
